# Legend:
# [1] = tested on: human dental follicle; test: Organoid formation from dissociated dental follicle; essentiality of medium factors assessed by omitting; type: cell-based; conditions: individual factor omitted from medium; P0, day 14 (FIG. 7a)
# Excerpt: To develop epithelial organoids starting from human tooth, the dental follicle, known to encompass a large mesenchymal component but also the small epithelial epithelial cell rests of Malassez compartment, was isolated from unerupted third molars (wisdom teeth) extracted from adolescent patients (FIG. 1a). After tissue dissociation, the epithelial-mesenchymal cell mixture, comprising single cells and cell clusters, was embedded in Matrigel and cultured in a precisely defined medium. Organoids are typically established using a cocktail of growth and regulatory factors active in the tissue's epithelial stem cell niche. In case niche signals are unresolved, factors with a key role in the tissue's embryonic development are applied. […] The starting point is a medium containing these factors as well as generic organoid growth factors (such as WNT activators, nicotinamide, BMP inhibitor and p38 MAPK inhibitor), and assessed the essentiality of individual factors by omitting. […] Eventually, this systematic evaluation led to defining an optimized medium (further referred to as tooth organoid medium or TOM; Table 1), allowing to develop organoid lines from dental follicle samples at 100% efficiency (Table 2).
# Third molars, predominantly unerupted, were extracted from adolescent patients (Table 2) at the ‘Oral and Maxillo-Facial Surgery-Imaging & Pathology (OMFS-IMPATH)’ unit of University Hospitals (UZ) Leuven after informed consent. The study was approved by the Ethics Committee Research UZ/KU Leuven (13/0104U). For sample collection, the gingiva was pushed aside after which the bone was perforated and the third molars with associated dental follicles were carefully isolated (without the visually distinct gingiva). dental follicle tissue was diligently peeled from the tooth and collected in Eagle's Minimum Essential Medium (αMEM; Sigma-Aldrich) supplemented with 10% foetal bovine serum (FBS; Sigma-Aldrich), 1% penicillin-streptomycin (Gibco) and 0.5% fungizone (Amphotericin B; Gibco). Following short rinsing steps in 70% ethanol and phosphate-buffered saline (PBS; Gibco), tissue was minced into small (˜1 mm^2) fragments, and further dissociated using collagenase VI (3 mg/ml; Thermo Fisher Scientific) and dispase II (4 mg/ml; Sigma-Aldrich) for 2 h at 37° C., while regularly pipetting up and down. The single cells and few small cell clusters were collected through a 40 μm cell strainer (Corning) while removing the remaining larger and fibrous tissue fragments.
# (§1) The dissociated dental follicle cell material was resuspended in a mixture of serum-free defined medium (SFDM; Thermo Fisher Scientific; Table 4) and growth factor-reduced Matrigel (Corning) in a 30:70 ratio, which was plated in 48-well plates at 20,000 cells per 20 μL drop. After solidification, tooth organoid medium (TOM; Table 1), unless indicated otherwise, was supplemented. ROCK inhibitor (RI; 10 μM; Merck Millipore) was added the first day of seeding (or passaging). Organoid cultures were kept at 37° C. in a 1.9% CO2 incubator, and medium was refreshed every 2 to 3 days, each time supplemented with fungizone (0.1%).
# [2] = tested on: tooth organoids; test: EGF supplementation of tooth organoid cultures (TOM+EGF): proliferation and EMT; type: cell-based, human
# Excerpt: To establish organoids from primary tissues, supplementation of EGF is generally found quintessential. […] In vivo, it is known that elevated EGF levels in the epithelial cell rests of Malassez compartment (as, for instance, occurring upon tooth movement, infection or trauma) activates epithelial cell rests of Malassez cell proliferation [Davis (2018) J. Vet. Dent. 35, 290-298]. […] It has been proposed that EMT induction in the epithelial cell rests of Malassez (as, for instance, occurring upon damaging tooth impact) enables the cells to migrate and eventually contribute to regeneration of neighbouring tissues [Davis (2018) J. Vet. Dent. 35, 290-298].
# as §1
# (§2) Primary dental follicle tissue, organoids and assembloid were fixed in 4% PFA for 1h, embedded in paraffin, and sections subjected to hematoxylin and eosin (H&E), immunofluorescence or ARS staining. Antigen retrieval (10 mM citrate, pH6) and permeabilization (0.1% Triton X-100; Sigma-Aldrich) were performed. After incubation with primary and secondary antibodies (Table 5), sections were mounted with Vectashield (DAPI; Vector Laboratories) or DPX mountant (Sigma-Aldrich). Analysis was done using a Leica DM5500 epifluorescence microscope or a Zeiss Axioimager epifluorescence microscope. ImageJ software was used to quantify immunoreactive signal intensity and the ‘corrected total organoid fluorescence’ (CTOF) (=integrated density−(area of organoid×mean fluorescence of background readings).
# RNA was extracted from dissociated dental follicle, organoids and assembloids using the GenElute Mammalian Total RNA Miniprep Kit (Sigma-Aldrich) according to the manufacturer's instructions. RNA was reverse-transcribed (RT) using the Superscript III First-Strand Synthesis Supermix (Thermo Fisher Scientific) and the resultant cDNA samples were analysed with SYBR Green-based quantitative PCR (qPCR) using the StepOnePlus Real-Time PCR System (AB Applied Biosystems). Forward and reverse primers (Table 6) were designed using PrimerBank and PrimerBlast. […] Relative gene expression levels were calculated as ΔCt (Ct target−Ct housekeeping gene) and compared to control (see figure legends).
# [3] = tested on: tooth organoids; test: Effect of TGFβ and TGFβ receptor inhibitor on differentiation of organoids switched to MIM; type: cell-based, human
# Excerpt: The above analyses exposed the enrichment of TGFβ pathway processes in tooth organoids subjected to ameloblast differentiation, in line with the proposed key role of TGFβ in amelogenesis. To assess the impact of the TGFβ pathway, organoids grown in TOM (P5) were switch to MIM with or without TGFβ (FIG. 6a).
# During tooth root development, Hertwig's epithelial root sheath (HERS), from which epithelial cell rests of Malassez is eventually derived, undergoes EMT to develop to participate in periodontal ligament formation. It has previously been proposed that this EMT process is regulated by TGFβ, thereby triggering HERS/epithelial cell rests of Malassez cells to switch phenotype toward periodontal ligament cells.
# Organoids (or dissociated dental follicle) were cultured in mineralization-inducing medium (MIM; Table 3; time schedule, see FIG. 4a and FIG. 10d) as described above. Recombinant human TGFβ1 (10 ng/ml; R&D) and the selective TGFβ receptor 1/2 inhibitor LY2109761 (5 μM; Selleckchem) were added when indicated.
# as §2
# RNA was extracted from dissociated dental follicle, organoids and assembloids using the GenElute Mammalian Total RNA Miniprep Kit (Sigma-Aldrich) according to the manufacturer's instructions. RNA was reverse-transcribed (RT) using the Superscript III First-Strand Synthesis Supermix (Thermo Fisher Scientific) and the resultant cDNA samples were analysed with SYBR Green-based quantitative PCR (qPCR) using the StepOnePlus Real-Time PCR System (AB Applied Biosystems). Forward and reverse primers (Table 6) were designed using PrimerBank and PrimerBlast. Glyceraldehyde-3-phosphate dehydrogenase (GAPDH) was included as housekeeping gene. Relative gene expression levels were calculated as ΔCt (Ct target−Ct housekeeping gene) and compared to control (see figure legends).
# [4] = tested on: assembloids; test: Assembloids (organoid-derived epithelial cells plus DPSCs) cultured in TOM+αMEM with TGFβ receptor inhibitor; type: cell-based, human; conditions: inhibitor 5 μM in TOM+αMEM
# Experimental: It was chosen to use DPSCs to mimic early stages of tooth development in which DPSC-derived odontoblasts are in close contact with ameloblasts. The DPSCs, isolated, grown and characterized using well-defined standard protocols, were combined with organoid-derived epithelial stem cells in a layered approach, thereby forming composite organoids (assembloids) which were cultured in a mixture of TOM and the DPSC growth medium αMEM (FIG. 6d).
# Whereas ODAM is not present in the straight (pure) epithelial organoids cultured in TOM (see above and FIG. 12c), it is expressed in the assembloids (FIG. 6d). This induction is not due to the addition of αMEM to TOM (FIG. 12c). […]
# Primary dental follicle tissue, organoids and assembloid were fixed in 4% PFA for 1h, embedded in paraffin, and sections subjected to hematoxylin and eosin (H&E), immunofluorescence or ARS staining. […] ImageJ software was used to quantify immunoreactive signal intensity and the ‘corrected total organoid fluorescence’ (CTOF) (=integrated density−(area of organoid×mean fluorescence of background readings).
# RNA was extracted from dissociated dental follicle, organoids and assembloids using the GenElute Mammalian Total RNA Miniprep Kit (Sigma-Aldrich) according to the manufacturer's instructions. […] Relative gene expression levels were calculated as ΔCt (Ct target−Ct housekeeping gene) and compared to control (see figure legends).
molecule,measurement,setting,value
FGF2,need of the factor for efficient organoid formation,[1],needed for efficient organoid formation
"NC(=O)c1cccnc1 [nicotinamide, reference compound]",need of the factor for efficient organoid formation,[1],needed for efficient organoid formation
epidermal growth factor [EGF],number of proliferating (KI67+) cells in the organoids,"[2]; EGF 50 ng/ml to initiating cultures, P0, day 7",increased number
same,proliferation,"[2]; EGF 50 ng/ml, P0, day 14",decline in proliferation
same,EMT / VIM expression in the organoids' border,"[2]; EGF 50 ng/ml, P0, day 14, colocalized with CK5 or P63",induction of an EMT process
same,VIM+ cells after EGF exposure following growth and expansion in TOM,"[2]; P5, day 14, also cell migration out of organoids",appearance of VIM^+ cells
"Oc1ccc(-c2nc(-c3ccncc3)c(-c3ccc(F)cc3)[nH]2)cc1 [SB202190, reference compound]",need of the factor for efficient organoid formation,[1],needed for efficient organoid formation
insulin-like growth factor-1 [IGF1],need of the factor for efficient organoid formation,[1],needed for efficient organoid formation
sonic hedgehog [SHH],need of the factor for efficient organoid formation,[1],needed for efficient organoid formation
transforming growth factor-beta [TGFβ],VIM expression in the epithelial (CK5+) organoids,[3]; MIM with TGFβ,further increased
same,AMTN gene expression,"[3]; MIM with TGFβ 10 ng/ml, RT-qPCR",increased expression
same,expression of periodontal ligament-specific genes POSTN and COL3A1,"[3]; MIM with TGFβ, RT-qPCR",significantly stimulated
same,ODAM expression (immunofluorescence),[3]; TOM-grown P5 organoids switched to MIM with TGFβ 10 ng/ml,further upregulated
"c1ccc(-c2nn3c(c2-c2ccnc4cc(OCCN5CCOCC5)ccc24)CCC3)nc1 [LY2109761, reference compound]",effect of TGFβ on ODAM and AMTN expression,[3]; inhibitor 5 μM added simultaneously with TGFβ in MIM,blocked
same,upregulated ODAM and AMTN expression in MIM,"[3]; inhibitor 5 μM, without exogenous TGFβ",strongly reduced
same,AMTN expression in the assembloids,[4],reduced
same,ODAM protein expression in the assembloids,[4],completely abolished
"FGF8 (protein, UniProt P55075 23-233, looked up, fibroblast growth factor) Fibroblast growth factor 8: QEGPGRGPALGRELASLFRAGREPQGVSQQHVREQSLVTDQLSRRLIRTYQLYSRTSGKHVQVLANKRINAMAEDGDPFAKLIVETDTFGSRVRVRGAETGLYICMNKKGKLIAKSNGKGKDCVFTEIVLENNYTALQNAKYEGWYMAFTRKGRPRKGSKTRQHQREVHFMKRLPRGHHTTEQSLRFEFLNYPPFTRSLRGSQRTWAPEPR",need of the factor for efficient organoid formation,[1],needed for efficient organoid formation
"FGF10 (protein, UniProt O15520 38-208, looked up, fibroblast growth factor) Fibroblast growth factor 10: QALGQDMVSPEATNSSSSSFSSPSSAGRHVRSYNHLQGDVRWRKLFSFTKYFLKIEKNGKVSGTKKENCPYSILEITSVEIGVVAVKAINSNYYLAMNKKGKLYGSKEFNNDCKLKERIEENGYNTYASFNWQHNGRQMYVALNGKGAPRRGQKTRRKNTSAHFLPMVVHS",need of the factor for efficient organoid formation,[1],needed for efficient organoid formation
"R-spondin 1 (protein, UniProt Q2MKA7 21-263, looked up) R-spondin-1: SRGIKGKRQRRISAEGSQACAKGCELCSEVNGCLKCSPKLFILLERNDIRQVGVCLPSCPPGYFDARNPDMNKCIKCKIEHCEACFSHNFCTKCKEGLYLHKGRCYPACPEGSSAANGTMECSSPAQCEMSEWSPWGPCSKKQQLCGFRRGSEERTRRVLHAPVGDHAACSDTKETRRCTVRRVPCPEGQKRRKGGQGRRENANRNLARKESKEAGAGSRRRKGQQQQQQQGTVGPLTSAGPA",need of the factor for efficient organoid formation,[1],needed for efficient organoid formation
"Noggin (protein, UniProt Q13253 28-232, looked up) Noggin: QHYLHIRPAPSDNLPLVDLIEHPDPIFDPKEKDLNETLLRSLLGGHYDPGFMATSPPEDRPGGGGGAAGGAEDLAELDQLLRQRPSGAMPSEIKGLEFSEGLAQGKKQRLSKKLRRKLQMWLWSQTFCPVLYAWNDLGSRFWPRYVKVGSCFSKRSCSVPEGMVCKPSKSVHLTVLRWRCQRRGGQRCGWIPIQYPIISECKCSC",need of the factor for efficient organoid formation,[1],needed for efficient organoid formation
